Laboratory results from patent US20220339143A1, “TAK-925 FOR USE IN TREATING NARCOLEPSY” (Takeda Pharmaceutical Company Limited, priority 2019, published 2022).
Read-outs that look alike come from different tables or passages of the source.

Experiment: Single dose PK in healthy subjects (Cohorts 1, 2, S1 and S2), plasma
Assay type: in vivo, human
Conditions: human, plasma, intravenous
Protocol: This study investigates (i) the safety and tolerability of Compound A (methyl (2R,3S)-3-((methylsulfonyl)amino)-2-(((cis-4-phenylcyclohexyl)oxy)methyl)piperidine-1-carboxylate) when a single dose given as a 9 hour continuous IV infusion is administered to healthy adults, healthy elderly subjects and patients with narcolepsy type 1 (NT1); (ii) the pharmacokinetics of Compound A when a single dose given as a 9 hour continuous IV infusion is administered to healthy adults, healthy elderly subjects and patients with narcolepsy type 1; and (iii) the pharmacodynamics (PD) effects of Compound A, primarily by evaluation of the sleep latency on MWT when a single dose given as a 9 hour continuous IV infusion is administered to patients with narcolepsy type 1.
Pharmacokinetics: Concentrations of Compound A in plasma, and CSF, and pharmacokinetics parameters.
On average, the time to reach the plateau appeared to be approximately 3 to 4 hours after the start of infusion. […] After switching off the IV infusion, Compound A plasma concentrations declined rapidly and in a biphasic manner with a mean terminal disposition phase t1/2z ranging approximately from 3.4 to 5.1 hours across all doses. […] Table 5 provides a summary of plasma concentrations of Compound A after a single IV infusion in healthy subjects. Table 6 provides a summary of pharmacokinetic parameters of Compound A after a single IV infusion in healthy subjects.

[1] = 14 mg, read-out: Plasma concentration, Maximum
[2] = 14 mg, read-out: Plasma concentration, Mean
[3] = 14 mg, read-out: Plasma concentration, Median
[4] = 14 mg, read-out: Plasma concentration, Minimum
[5] = 14 mg, read-out: Plasma concentration, Q1
[6] = 14 mg, read-out: Plasma concentration, Q3
[7] = 28 mg, read-out: Plasma concentration, Maximum
[8] = 28 mg, read-out: Plasma concentration, Mean
[9] = 28 mg, read-out: Plasma concentration, Median
[10] = 28 mg, read-out: Plasma concentration, Minimum
[11] = 28 mg, read-out: Plasma concentration, Q1
[12] = 28 mg, read-out: Plasma concentration, Q3

SMILES: COC(=O)N1CCC[C@H](NS(C)(=O)=O)[C@@H]1CO[C@H]1CC[C@@H](c2ccccc2)CC1 [Compound A, methyl (2R,3S)-3-((methylsulfonyl)amino)-2-(((cis-4-phenylcyclohexyl)oxy)methyl)piperidine-1-carboxylate]
- concentration at 3 hr (7 mg, 3 hr, read-out: Plasma concentration, Q1): 15.1 ng/mL
- concentration at 3 h (7 mg, 3 hr, read-out: Plasma concentration, Q3): 18.8 ng/mL
- concentration at 4 h (7 mg, 4 hr, read-out: Plasma concentration, Maximum): 20.6 ng/mL
- concentration at 4 h (7 mg, 4 hr, read-out: Plasma concentration, Mean): 15.9 ng/mL
- concentration at 4 h (7 mg, 4 hr, read-out: Plasma concentration, Median): 15.5 ng/mL
- concentration at 4 h (7 mg, 4 hr, read-out: Plasma concentration, Minimum): 11.1 ng/mL
- concentration at 4 hr (7 mg, 4 hr, read-out: Plasma concentration, Q1): 15.2 ng/mL
- concentration at 4 h (7 mg, 4 hr, read-out: Plasma concentration, Q3): 17.6 ng/mL
- concentration at 6 h (7 mg, 6 hr, read-out: Plasma concentration, Maximum): 15.9 ng/mL
- concentration at 6 h (7 mg, 6 hr, read-out: Plasma concentration, Mean): 12.2 ng/mL
- concentration at 6 h (7 mg, 6 hr, read-out: Plasma concentration, Median): 12.4 ng/mL
- concentration at 6 h (7 mg, 6 hr, read-out: Plasma concentration, Minimum): 8.82 ng/mL
- concentration at 6 hr (7 mg, 6 hr, read-out: Plasma concentration, Q1): 11.4 ng/mL
- concentration at 6 h (7 mg, 6 hr, read-out: Plasma concentration, Q3): 12.5 ng/mL
- concentration at 8 h (7 mg, 8 hr, read-out: Plasma concentration, Maximum): 16.1 ng/mL
- concentration at 8 h (7 mg, 8 hr, read-out: Plasma concentration, Mean): 13 ng/mL
- concentration at 8 h (7 mg, 8 hr, read-out: Plasma concentration, Median): 13.1 ng/mL
- concentration at 8 h (7 mg, 8 hr, read-out: Plasma concentration, Minimum): 9.5 ng/mL
- concentration at 8 hr (7 mg, 8 hr, read-out: Plasma concentration, Q1): 12.8 ng/mL
- concentration at 8 h (7 mg, 8 hr, read-out: Plasma concentration, Q3): 13.4 ng/mL
- concentration at 9 h (7 mg, 9 hr, read-out: Plasma concentration, Maximum): 15.2 ng/mL
- concentration at 9 h (7 mg, 9 hr, read-out: Plasma concentration, Mean): 13.5 ng/mL
- concentration at 9 h (7 mg, 9 hr, read-out: Plasma concentration, Median): 13.9 ng/mL
- concentration at 9 h (7 mg, 9 hr, read-out: Plasma concentration, Minimum): 10.2 ng/mL
- concentration at 9 hr (7 mg, 9 hr, read-out: Plasma concentration, Q1): 13.2 ng/mL
- concentration at 9 h (7 mg, 9 hr, read-out: Plasma concentration, Q3): 15 ng/mL
- concentration at 0.5 h [1]: 27.2 ng/mL
- concentration at 0.5 h [2]: 22.5 ng/mL
- concentration at 0.5 h [3]: 22.1 ng/mL
- concentration at 0.5 h [4]: 18 ng/mL
- concentration at 0.5 h [5]: 21.7 ng/mL
- concentration at 0.5 h [6]: 23.9 ng/mL
- concentration at 1 h [1]: 32.1 ng/mL
- concentration at 1 h [2]: 26.6 ng/mL
- concentration at 1 h [3]: 26.9 ng/mL
- concentration at 1 h [4]: 21.8 ng/mL
- concentration at 1 h [5]: 22.6 ng/mL
- concentration at 1 h [6]: 29.7 ng/mL
- concentration at 1.5 h [1]: 36.1 ng/mL
- concentration at 1.5 h [2]: 30.4 ng/mL
- concentration at 1.5 h [3]: 29 ng/mL
- concentration at 1.5 h [4]: 27.4 ng/mL
- concentration at 1.5 h [5]: 27.6 ng/mL
- concentration at 1.5 h [6]: 33.6 ng/mL
- concentration at 2 h (14 mg, 2 hr, read-out: Plasma concentration, Maximum): 37.8 ng/mL
- concentration at 2 h (14 mg, 2 hr, read-out: Plasma concentration, Mean): 32.9 ng/mL
- concentration at 2 h (14 mg, 2 hr, read-out: Plasma concentration, Median): 32 ng/mL
- concentration at 2 h (14 mg, 2 hr, read-out: Plasma concentration, Minimum): 29.6 ng/mL
- concentration at 2 h (14 mg, 2 hr, read-out: Plasma concentration, Q1): 30 ng/mL
- concentration at 2 h (14 mg, 2 hr, read-out: Plasma concentration, Q3): 35.8 ng/mL
- concentration at 3 h (14 mg, 3 hr, read-out: Plasma concentration, Maximum): 43.5 ng/mL
- concentration at 3 h (14 mg, 3 hr, read-out: Plasma concentration, Mean): 35.8 ng/mL
- concentration at 3 h (14 mg, 3 hr, read-out: Plasma concentration, Median): 34.3 ng/mL
- concentration at 3 h (14 mg, 3 hr, read-out: Plasma concentration, Minimum): 31.8 ng/mL
- concentration at 3 h (14 mg, 3 hr, read-out: Plasma concentration, Q1): 32.1 ng/mL
- concentration at 3 h (14 mg, 3 hr, read-out: Plasma concentration, Q3): 39 ng/mL
- concentration at 4 h (14 mg, 4 hr, read-out: Plasma concentration, Maximum): 40.4 ng/mL
- concentration at 4 h (14 mg, 4 hr, read-out: Plasma concentration, Mean): 36.4 ng/mL
- concentration at 4 h (14 mg, 4 hr, read-out: Plasma concentration, Median): 37 ng/mL
- concentration at 4 h (14 mg, 4 hr, read-out: Plasma concentration, Minimum): 31 ng/mL
- concentration at 4 h (14 mg, 4 hr, read-out: Plasma concentration, Q1): 33 ng/mL
- concentration at 4 h (14 mg, 4 hr, read-out: Plasma concentration, Q3): 40 ng/mL
- concentration at 6 h (14 mg, 6 hr, read-out: Plasma concentration, Maximum): 35.2 ng/mL
- concentration at 6 h (14 mg, 6 hr, read-out: Plasma concentration, Mean): 29.3 ng/mL
- concentration at 6 h (14 mg, 6 hr, read-out: Plasma concentration, Median): 29.7 ng/mL
- concentration at 6 h (14 mg, 6 hr, read-out: Plasma concentration, Minimum): 23.1 ng/mL
- concentration at 6 h (14 mg, 6 hr, read-out: Plasma concentration, Q1): 23.9 ng/mL
- concentration at 6 h (14 mg, 6 hr, read-out: Plasma concentration, Q3): 34.4 ng/mL
- concentration at 8 h (14 mg, 8 hr, read-out: Plasma concentration, Maximum): 34.4 ng/mL
- concentration at 8 h (14 mg, 8 hr, read-out: Plasma concentration, Mean): 28.9 ng/mL
- concentration at 8 h (14 mg, 8 hr, read-out: Plasma concentration, Median): 29.9 ng/mL
- concentration at 8 h (14 mg, 8 hr, read-out: Plasma concentration, Minimum): 22.6 ng/mL
- concentration at 8 h (14 mg, 8 hr, read-out: Plasma concentration, Q1): 24.6 ng/mL
- concentration at 8 h (14 mg, 8 hr, read-out: Plasma concentration, Q3): 32.3 ng/mL
- concentration at 9 h (14 mg, 9 hr, read-out: Plasma concentration, Maximum): 34.2 ng/mL
- concentration at 9 h (14 mg, 9 hr, read-out: Plasma concentration, Mean): 30.1 ng/mL
- concentration at 9 h (14 mg, 9 hr, read-out: Plasma concentration, Median): 30.8 ng/mL
- concentration at 9 h (14 mg, 9 hr, read-out: Plasma concentration, Minimum): 22.8 ng/mL
- concentration at 9 h (14 mg, 9 hr, read-out: Plasma concentration, Q1): 28.4 ng/mL
- concentration at 9 h (14 mg, 9 hr, read-out: Plasma concentration, Q3): 33.5 ng/mL
- concentration at 0.5 h [7]: 48.7 ng/mL
- concentration at 0.5 hr [8]: 34.4 ng/mL
- concentration at 0.5 hr [9]: 32 ng/mL
- concentration at 0.5 hr [10]: 19.1 ng/mL
- concentration at 0.5 hr [11]: 29.6 ng/mL
- concentration at 0.5 h [12]: 42.6 ng/mL
- concentration at 1 h [7]: 51.8 ng/mL
- concentration at 1 hr [8]: 37.9 ng/mL
- concentration at 1 hr [9]: 36.6 ng/mL
- concentration at 1 hr [10]: 21.7 ng/mL
- concentration at 1 hr [11]: 36.5 ng/mL
- concentration at 1 h [12]: 42.8 ng/mL
- concentration at 1.5 h [7]: 55.9 ng/mL
- concentration at 1.5 hr [8]: 44.9 ng/mL
- concentration at 1.5 h [9]: 47.1 ng/mL
- concentration at 1.5 hr [10]: 27.2 ng/mL
- concentration at 1.5 hr [11]: 44.4 ng/mL
- concentration at 1.5 h [12]: 49.9 ng/mL
- concentration at 2 h (28 mg, 2 hr, read-out: Plasma concentration, Maximum): 58.4 ng/mL
- concentration at 2 hr (28 mg, 2 hr, read-out: Plasma concentration, Mean): 50.1 ng/mL
- concentration at 2 h (28 mg, 2 hr, read-out: Plasma concentration, Median): 54.9 ng/mL
